Values belong to the compound of their own block, whether it stands above or below them.
Assays:
[1] = test system: Glo-Response ARE-luc2P HEK293 cell line; assay: ARE luciferase reporter cell-based assay; settings: Homo sapiens, HEK293, 24 h, average of results obtained;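 note: luciferase signal tracks Nrf2 activation of the ARE once compounds disrupt KEAP1-Nrf2 binding, read with One-Glo reagent, DMSO serving as low control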
[2] = biological target: Kelch domain of human KEAP1 (321-624 aa) (Homo sapiens (Human), UniProt Q14145); assay: KEAP1 KELCH ThermoFluor binding assay; settings: KEAP Kelch […], 1,8-ANS, pH 7.0, average of results obtained, read-out: Tf Kd;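 note: Ligand-induced melting temperature shift of E. coli-expressed KEAP1 Kelch protein, Kd estimated from concentration-response curves of ΔTm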
Sequence of Kelch domain of human KEAP1 (321-624 aa) (Q14145 321-624): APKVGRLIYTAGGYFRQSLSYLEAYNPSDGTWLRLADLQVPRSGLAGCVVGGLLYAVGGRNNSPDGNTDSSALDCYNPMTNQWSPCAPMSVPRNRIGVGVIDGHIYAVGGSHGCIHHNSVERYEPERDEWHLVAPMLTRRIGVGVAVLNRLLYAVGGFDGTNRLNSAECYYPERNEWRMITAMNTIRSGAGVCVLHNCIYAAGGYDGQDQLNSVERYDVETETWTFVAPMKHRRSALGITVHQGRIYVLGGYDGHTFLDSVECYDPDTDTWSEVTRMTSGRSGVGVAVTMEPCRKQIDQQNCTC

SMILES: Cc1cnc2c(c1)S(=O)(=O)N(Cc1cc([C@@H](CC(=O)O)c3ccn4c(C(F)(F)F)nnc4c3C)ccc1C#N)CC1(CC1)O2 (single isomer, unassigned) [Example 106, (*R)-3-(4-Cyano-3-((8′-methyl-1′,1′-dioxidospiro[cyclopropane-1,4′-pyrido[2,3-b][1,4,5]oxathiazepin]-2′(3′H)-yl)methyl)phenyl)-3-(8-methyl-3-(trifluoromethyl)-[1,2,4]trizolo[4,3-a]pyridine-7-yl)propanoic Acid]
- EC50 [1]: > 20000 nM
- Kd [2]: 21 nM

SMILES: COCCCNc1ccc2c(n1)OC1(CC1)CN(Cc1cc([C@H](CC(=O)O)c3ccn4c(C(F)(F)F)nnc4c3C)ccc1C)S2(=O)=O (single isomer, unassigned) [Example 107, (*S)-3-(3-((7′-((3-Methoxypropyl)amino)-1′,1′-dioxidospiro[cyclopropane-1,4′-pyrido[2,3-b][1,4,5]oxathiazepin]-2′(3′H)-yl)methyl)-4-methylphenyl)-3-(8-methyl-3-(trifluoromethyl)-[1,2,4]triazolo[4,3-a]pyridine-7-yl)propanoic Acid]
- EC50 [1]: 259 nM
- Kd [2]: < 1 nM

SMILES: Cc1ccc([C@H](CC(=O)O)c2ccn3c(C(F)(F)F)nnc3c2C)cc1CN1CC2(CC2)Oc2nc(N(C)CCCO)ccc2S1(=O)=O (single isomer, unassigned) [Example 108, (*S)-3-(-3-((7′-((3-Hydroxypropyl)(methyl)amino)-1′,1′-dioxidospiro[cyclopropane-1,4′-pyrido[2,3-b][1,4,5]oxathiazepin]-2′(3′H)-yl)methyl)-4-methylphenyl)-3-(8-methyl-3-(trifluoromethyl)-[1,2,4[triazolo[4,3-a]pyridine-7-yl)propanoic Acid]
- EC50 [1]: 406 nM
- Kd [2]: < 1 nM

SMILES: Cc1ccc([C@H](CC(=O)O)c2ccn3c(C(F)(F)F)nnc3c2C)cc1CN1CC2(CC2)Oc2nc(NCCN3CCOCC3)ccc2S1(=O)=O (single isomer, unassigned) [Example 111, (*S)-3-(4-Methyl-((7′-((2-morpholinoethyl)amino)-1′,1′-dioxidospiro[cyclopropane-1,4′-pyrido[2,3-b][1,4,5]oxathiazepin]-2′(3′H)-yl)methyl)-4-methylphenyl)-3-(8-methyl-3-(trifluoromethyl)-[1,2,4 [triazolo[4,3-a]pyridine-7-yl)propanoic Acid]
- EC50 [1]: 588 nM
- Kd [2]: < 1 nM

SMILES: Cc1ccc([C@H](CC(=O)O)c2ccn3c(C(F)(F)F)nnc3c2C)cc1CN1CC2(CC2)Oc2nc(NCCN3CCCCC3)ccc2S1(=O)=O (single isomer, unassigned) [Example 112, (*S)-3-(3-((1′,1′-Dioxido-7′-((2-(piperidin-1-yl)ethyl)amino)spiro[cyclopropane-1,4′-pyrido[2,3-b][1,4,5]oxathiazepin]-2′(3′H)-yl)methyl)-4-methylphenyl)-3-(8-methyl-3-(trifluoromethyl)-[1,2,4[triazolo[4,3-a]pyridine-7-yl)propanoic Acid]
- EC50 [1]: 1310 nM
- Kd [2]: < 1 nM

SMILES: Cc1ccc([C@H](c2ccn3c(C(F)(F)F)nnc3c2C)C(C)(C)C(=O)O)cc1CN1CC2(CCOCC2)Oc2nc(N[C@H](C)C(C)(C)O)c(C)cc2S1(=O)=O (single isomer, unassigned) [Example 124, (*R)-3-(3-((7′-(((R)-3-Hydroxy-3-methylbutan-2-yl)amino)-8′-methyl-1′,1′-dioxido-2,3,5,6-tetrahydrospiro[pyran-4,4′-pyrido[2,3-b][1,4,5]oxathiazepin]-2′(3′H)-yl)methyl)-4-methylphenyl)-2,2-dimethyl-3-(8-methyl-3-(trifluoromethyl)-[1,2,4]triazolo[4,3-a]pyridin-7-yl)propanoic Acid]
- EC50 [1]: 28.8 nM
- Kd [2]: < 1 nM

SMILES: Cc1ccc([C@@H](c2ccn3c(C(F)(F)F)nnc3c2C)C(C)(C)C(=O)O)cc1CN1CC2(CCOCC2)Oc2nc(OCCN3CCCCC3)c(C)cc2S1(=O)=O (single isomer, unassigned) [Example 126, 2,2-Dimethyl-3-(4-methyl-3-((8′-methyl-1′,1′-dioxido3-(3-((7′-(((*S)-4-hydroxybutan-2-yl)amino)-8′-methyl-1′,1′-dioxido-7′-(2-(piperidin-1-yl)ethoxy)-2,3,5,6-tetrahydrospiro[pyran-4,4′-pyrido[2,3-b][1,4,5]oxathiazepin]-2′(3′H)-yl)methyl)phenyl)-3-(8-methyl-3-(trifluoromethyl)-[1,2,4]triazolo[4,3-a]pyridine-7-yl)propanoic Acid]
- EC50 [1]: 6 nM
- Kd [2]: < 1 nM

SMILES: CCn1nnc2c(C)c([C@@H](CC(=O)O)c3ccc(C)c(CN4C[C@@H]5CCCN5c5ncccc5S4(=O)=O)c3)ccc21 (single isomer, unassigned) [Example 156, (*S)-3-(3-(((S)-5,5-Dioxido-7a,8,9,10-tetrahydropyrido[2,3-f]pyrrolo[2,1-d][1,2,5]thiadiazepin-6(7H)-yl)methyl)-4-methylphenyl)-3-(1-ethyl-4-methyl-1H-benzo[d][1,2,3]triazol-5-yl)propanoic Acid]
- EC50 [1]: 3.6 nM
- Kd [2]: 2.1 nM

SMILES: CCn1nnc2c(C)c([C@H](CC(=O)O)c3ccc(C)c(CN4C[C@@H]5CCCN5c5ncccc5S4(=O)=O)c3)ccc21 (single isomer, unassigned) [Example 157, (*R)-3-(3-(((S)-5,5-Dioxido-7a,8,9,10-tetrahydropyrido[2,3-f]pyrrolo[2,1-d][1,2,5]thiadiazepin-6(7H)-yl)methyl)-4-methylphenyl)-3-(1-ethyl-4-methyl-1H-benzo[d][1,2,3]triazol-5-yl)propanoic Acid]
- EC50 [1]: 62 nM
- Kd [2]: ~3.2 nM

SMILES: Cc1ccc([C@H](CC(=O)O)c2ccn3c(C)nnc3c2)cc1CN1C[C@H]2CCCN2c2ncccc2S1(=O)=O (single isomer, unassigned) [Example 163, (*S)-3-(3-(((R)-5,5-Dioxido-7a,8,9,10-tetrahydropyrido[2,3-f]pyrrolo[2,1-d][1,2,5]thiadiazepin-6(7H)-yl)methyl)-4-methylphenyl)-3-(3-methyl-[1,2,4]triazolo[4,3-a]pyridin-7-yl)propanoic Acid]
- EC50 [1]: 2750 nM
- Kd [2]: < 1 nM

Continued, in another order:

- Kd [2]: < 1 nM
SMILES: Cc1ccc([C@@H](c2ccn3c(C(F)(F)F)nnc3c2C)C(C)(C)C(=O)O)cc1CN1CC2(CCOCC2)Oc2nc(N[C@H](C)CCO)ccc2S1(=O)=O (single isomer, unassigned) [Example 119, (*S)-3-(3-((7′-(((R)-4-Hydroxybutan-2-yl)amino)-1′,1′-dioxido-2,3,5,6-tetrahydrospiro[pyran-4,4′-pyrido[2,3-b][1,4,5]oxathiazepin]-2′(3′H)-yl)methyl)-4-methylphenyl)-2,2-dimethyl-3-(8-methyl-3-(trifluoromethyl)-[1,2,4[triazolo[4,3-a]pyridine-7-yl)propanoic Acid]
- EC50 [1]: 166 nM

- Kd [2]: 8560 nM
SMILES: Cc1ccc([C@H](c2ccn3c(C(F)(F)F)nnc3c2C)C(C)(C)C(=O)O)cc1CN1CC2(CCOCC2)Oc2nc(N[C@H](C)CCO)ccc2S1(=O)=O (single isomer, unassigned) [Example 120, (*R)-3-(3-((7′-(((R)-4-Hydroxybutan-2-yl)amino)-1′,1′-dioxido-2,3,5,6-tetrahydrospiro[pyran-4,4′-pyrido[2,3-b][1,4,5]oxathiazepin]-2′(3′H)-yl)methyl)-4-methylphenyl)-2,2-dimethyl-3-(8-methyl-3-(trifluoromethyl)-[1,2,4[triazolo[4,3-a]pyridine-7-yl)propanoic Acid]
- EC50 [1]: 19400 nM

- Kd [2]: < 1 nM
SMILES: Cc1ccc([C@@H](c2ccn3c(C(F)(F)F)nnc3c2C)C(C)(C)C(=O)O)cc1CN1CC2(CCOCC2)Oc2nc(N[C@@H](C)CCO)ccc2S1(=O)=O (single isomer, unassigned) [Example 121, (*S)-3-(3-((7′-(((S)-4-Hydroxybutan-2-yl)amino)-1′,1′-dioxido-2,3,5,6-tetrahydrospiro[pyran-4,4′-pyrido[2,3-b][1,4,5]oxathiazepin]-2′(3′H)-yl)methyl)-4-methylphenyl)-2,2-dimethyl-3-(8-methyl-3-(trifluoromethyl)-[1,2,4[triazolo[4,3-a]pyridine-7-yl)propanoic Acid]
- EC50 [1]: 157 nM

- Kd [2]: 8930 nM
SMILES: Cc1ccc([C@H](c2ccn3c(C(F)(F)F)nnc3c2C)C(C)(C)C(=O)O)cc1CN1CC2(CCOCC2)Oc2nc(N[C@@H](C)CCO)ccc2S1(=O)=O (single isomer, unassigned) [Example 122, (*R)-3-(3-((7′-(((S)-4-Hydroxybutan-2-yl)amino)-1′,1′-dioxido-2,3,5,6-tetrahydrospiro[pyran-4,4′-pyrido[2,3-b][1,4,5]oxathiazepin]-2′(3′H)-yl)methyl)-4-methylphenyl)-2,2-dimethyl-3-(8-methyl-3-(trifluoromethyl)-[1,2,4[triazolo[4,3-a]pyridine-7-yl)propanoic Acid]
- EC50 [1]: 13000 nM

- Kd [2]: < 1 nM
SMILES: Cc1ccc([C@H](c2ccn3c(C(F)(F)F)nnc3c2C)C(C)(C)C(=O)O)cc1CN1CC2(CCOCC2)Oc2nc(N[C@@H](C)CCO)c(C)cc2S1(=O)=O (single isomer, unassigned) [Example 123, (*R)-3-(3-((7′-(((S)-4-Hydroxybutan-2-yl)amino)-8′-methyl-1′,1′-dioxido-2,3,5,6-tetrahydrospiro[pyran-4,4′-pyrido[2,3-b][1,4,5]oxathiazepin]-2′(3′H)-yl)methyl)-4-methylphenyl)-2,2-dimethyl-3-(8-methyl-3-(trifluoromethyl)-[1,2,4[triazolo[4,3-a]pyridine-7-yl)propanoic Acid]
- EC50 [1]: 28.9 nM

- Kd [2]: < 1 nM
SMILES: Cc1ccc([C@H](c2ccn3c(C(F)(F)F)nnc3c2C)C(C)(C)C(=O)O)cc1CN1CC2(CCOCC2)Oc2nc(CCC(=O)NCCO)ccc2S1(=O)=O (single isomer, unassigned) [Example 128, (*R)-3-(3-((7′-(3-((2-Hydroxyethyl)amino)-3-oxopropyl)-1′,1′-dioxido-2,3,5,6-tetrahydrospiro[pyran-4,4′-pyrido[2,3-b][1,4,5]oxathiazepin]-2′(3′H)-yl)methyl)-4-methylphenyl)-2,2-dimethyl-3-(8-methyl-3-(trifluoromethyl)-[1,2,4]triazolo[4,3-a]pyridine-7-yl)propanoic Acid]
- EC50 [1]: 308 nM
